Reference: patent US5217960A, “Erythromycin derivatives” (priority 1991, dated 1993)
Like-named read-outs stand apart in the source and are kept apart here.

Legend:
Type in all cases: cell-based
[1] = tested on: STREPTOCOCCUS PYOGENES 2548 INDUC; assay: In vitro antibacterial activity, agar dilution MIC
[2] = tested on: ESCHERICHIA COLI DC-2; assay: In vitro antibacterial activity, agar dilution MIC; conditions: E. coli DC-2, BHI agar, 35-37° C., 20 to 24 hours, read-out: MIC
[3] = tested on: STAPHYLOCOCCUS AUREUS 45; assay: In vitro antibacterial activity, agar dilution MIC; conditions: 24 h
[4] = tested on: PROVIDENCIA STUARTII CMX 640; assay: microbe, parasite or virus in culture; conditions: P. stuartii CMX 640, BHI agar, 35-37° C., 20 to 24 hours
[5] = tested on: STAPHYLOCOCCUS AUREUS ATCC 6538P; assay: In vitro antibacterial activity, agar dilution MIC; conditions: ATCC6538P, 24 h
[6] = tested on: STAPHYLOCOCCUS AUREUS NCTC 10649; assay: In vitro antibacterial activity, agar dilution MIC; conditions: NCTC10649, 24 h
[7] = tested on: PSEUDOMONAS CEPACIA 296I; assay: In vitro antibacterial activity, agar dilution MIC; conditions: Burkholderia cepacia; P. cepacia 296I; BHI agar, 35-37° C., 20 to 24 hours; read-out: MIC
[8] = tested on: PSEUDOMONAS AERUGINOSA A5007; assay: In vitro antibacterial activity, agar dilution MIC; conditions: P. aeruginosa A5007, BHI agar, 35-37° C., 20 to 24 hours
[9] = tested on: STAPHYLOCOCCUS AUREUS 642A; assay: In vitro antibacterial activity, agar dilution MIC; conditions: 24 h
[10] = tested on: STR[…] 508; assay: In vitro antibacterial activity, agar dilution MIC; conditions: Streptococcus agalactiae, 24 h
Description: (§1) Representative compounds of the present invention were assayed in vitro for antibacterial activity as follows: Twelve petri dishes containing successive aqueous dilutions of the test compound mixed with 10 ml of sterilized Brain Heart Infusion (BHI) agar (Difco 0418-01-5) were prepared. Each plate was inoculated with 1:100 (or 1:10 for slow-growing strains, such as Micrococcus and Streptococcus) dilutions of up to 32 different microorganisms, using a Steers replicator block. The inoculated plates were incubated at 35°-37° C. for 20 to 24 hours. In addition, a control plate, using BHI agar containing no test compound, was prepared and incubated at the beginning and end of each test.
(§2) An additional plate containing a compound having known susceptibility patterns for the organisms being tested and belonging to the same antibiotic class as the test compound was also prepared and incubated as a further control, as well as to provide test-to-test comparability. Erythromycin A was used for this purpose.
(§3) After incubation, each disk was read. The minimum inhibitory concentration (MIC) was defined as the lowest concentration of drug yielding no growth, a slight haze, or sparsely isolated colonies on the inoculum spot as compared to the growth control.

[11] = tested on: STR[…] EES61; assay: In vitro antibacterial activity, agar dilution MIC; conditions: Streptococcus pyogenes, 24 h
Description: as §1, §2, §3

[12] = tested on: STREPTOCOCCUS BOVIS A5169; assay: In vitro antibacterial activity, agar dilution MIC; conditions: 24 h
[13] = tested on: STAPHYLOCOCCUS EPIDERMIDIS 3519; assay: microbe, parasite or virus in culture; conditions: 24 h
[14] = tested on: STAPHYLOCOCCUS AUREUS 1775; assay: In vitro antibacterial activity, agar dilution MIC; conditions: S. aureus 1775, BHI agar, 35-37° C., 20 to 24 hours, read-out: MIC
[15] = tested on: KLEBSIELLA PNEUMONIAE ATCC 8045; assay: In vitro antibacterial activity, agar dilution MIC; conditions: ATCC8045, K. pneumoniae ATCC 8045, BHI agar, 35-37° C., 20 to 24 hours, read-out: MIC
[16] = tested on: ESCHERICHIA COLI H560; assay: In vitro antibacterial activity, agar dilution MIC
[17] = tested on: STREPTOCOCCUS PYOGENES 930 CONST; assay: In vitro antibacterial activity, agar dilution MIC; conditions: S. pyogenes 930 CONST, BHI agar, 35-37° C., 20 to 24 hours, read-out: MIC
[18] = tested on: STAPHYLOCOCCUS AUREUS CMX 553; assay: In vitro antibacterial activity, agar dilution MIC; conditions: 24 h
[19] = tested on: PSEUDOMONAS AERUGINOSA K799/WT; assay: In vitro antibacterial activity, agar dilution MIC; conditions: P. aeruginosa K799/WT, BHI agar, 35-37° C., 20 to 24 hours
[20] = tested on: PSEUDOMONAS AERUGINOSA BMH10; assay: In vitro antibacterial activity, agar dilution MIC; conditions: P. aeruginosa BMH10, BHI agar, 35-37° C., 20 to 24 hours, read-out: MIC
[21] = tested on: PSEUDOMONAS AERUGINOSA K799/61; assay: In vitro antibacterial activity, agar dilution MIC; conditions: P. aeruginosa K799/61, BHI agar, 35-37° C., 20 to 24 hours, read-out: MIC
Description: as §1, §2
as §3, with “control. The results of this assay, shown below in Tables 1 and 2, support the conclusion that the compounds of the invention are effective antibacterial agents.” for “control.”

[22] = tested on: M[…] ATCC 4698; assay: In vitro antibacterial activity, agar dilution MIC; conditions: Micrococcus luteus, ATCC4698, 24 h
Description: as §1, §2
as §3, with “control. The results of this assay, shown below in Tables 1 and 2, support the conclusion that the compounds of the invention are effective antibacterial agents.” for “control.”

[23] = tested on: M[…] ATCC 9341; assay: In vitro antibacterial activity, agar dilution MIC; conditions: Micrococcus luteus, ATCC9341, 24 h
Description: as §1, §2
as §3, with “control. The results of this assay, shown below in Tables 1 and 2, support the conclusion that the compounds of the invention are effective antibacterial agents.” for “control.”

[24] = tested on: EN[…] ATCC 8043; assay: In vitro antibacterial activity, agar dilution MIC; conditions: Enterococcus faecium, ATCC8043, 24 h
Description: as §1, §2
as §3, with “control. The results of this assay, shown below in Tables 1 and 2, support the conclusion that the compounds of the invention are effective antibacterial agents.” for “control.”

[25] = tested on: ESCHERICHIA COLI JUHL; assay: microbe, parasite or virus in culture; conditions: E. coli JUHL, BHI agar, 35-37° C., 20 to 24 hours, read-out: MIC
[26] = tested on: STAPHYLOCOCCUS AUREUS A5177; assay: In vitro antibacterial activity, agar dilution MIC
[27] = tested on: ESCHERICHIA COLI KNK 437; assay: microbe, parasite or virus in culture; conditions: E. coli KNK 437, BHI agar, 35-37° C., 20 to 24 hours
[28] = tested on: ENTEROBACTER AEROGENES ATCC 13048; assay: In vitro antibacterial activity, agar dilution MIC; conditions: Klebsiella aerogenes, ATCC13048; E. aerogenes ATCC 13048; BHI agar, 35-37° C., 20 to 24 hours; read-out: MIC
[29] = tested on: ESCHERICHIA COLI SS; assay: In vitro antibacterial activity, agar dilution MIC; conditions: 24 h
[30] = tested on: ACINETOBACTER CALCOACETICUS CMX 669; assay: In vitro antibacterial activity, agar dilution MIC; conditions: A. calcoaceticus CMX 669, BHI agar, 35-37° C., 20 to 24 hours

Measured: MIC

CC[C@H]1OC(=O)[C@H](C)[C@@H](O[C@H]2C[C@@](C)(OC)[C@@H](O)[C@H](C)O2)[C@H](C)[C@@H](O[C@@H]2O[C@H](C)C[C@H](N(C)C)[C@H]2O)[C@](C)(O)C[C@@H](C)[C@@H](N(C)C)[C@H](C)[C@@H](O)[C@@]1(O)CO [Compound 10, (9R)-9-deoxo-9-(N,N-dimethylamino)-21-hydroxyerythromycin A]
50 µg/mL: [21]
3.1 µg/mL: [10] | [12] | [22]
6.2 µg/mL: [23]
100 µg/mL: [1]; S. pyogenes 2548 INDUC, BHI agar, 35-37° C., 20 to 24 hours, read-out: MIC | [16]; E. coli H560, BHI agar, 35-37° C., 20 to 24 hours, read-out: MIC
> 100 µg/mL: [2] | [4] | [7] | [8] | [14] | [15] | [17] | [19] | [20] | [25] | [26]; 24 h | [27] | [28] | [30]
25 µg/mL: [3] | [5] | [9] | [13] | [18]
12.5 µg/mL: [6] | [24]
1.56 µg/mL: [11] | [29]

CC[C@H]1OC(=O)[C@H](C)[C@@H](O[C@H]2C[C@@](C)(OC)[C@@H](O)[C@H](C)O2)[C@H](C)[C@@H](O[C@@H]2O[C@H](C)C[C@H](N(C)C)[C@H]2O)[C@](C)(O)C[C@@H](C)[C@@H](N(C)C)[C@H](C)[C@@H](O)[C@H]1CO [Compound 11, (9R)-9-deoxo-9-(N,N-dimethylamino)-21-hydroxyerythromycin B]
0.39 µg/mL: [11] | [29]
50 µg/mL: [1]; 24 h | [16]; 24 h
1.56 µg/mL: [24]
0.78 µg/mL: [10] | [12] | [22] | [23]
> 100 µg/mL: [2] | [4] | [7] | [8] | [14] | [15] | [17] | [19] | [20] | [25] | [27] | [28] | [30]
6.2 µg/mL: [3] | [5] | [6] | [9] | [13] | [18]
100 µg/mL: [26]; S. aureus A5177, BHI agar, 35-37° C., 20 to 24 hours, read-out: MIC
12.5 µg/mL: [21]
